Reference: PMC7044277 (Nature Communications, 2020)
Where “and” joins values, the source holds several entries; their conditions need not be identical. Equal entries are not always repeated.

Legend:
Assay type in all cases: cell-based
320 non-olfactory GPCRs [1] = molecular target: T1, 320 non-olfactory GPCRs (Homo sapiens, UniProt P08588)
T1 construct: expressed in transfected cells; host or cells: HTLA cells

320 non-olfactory GPCRs [2] = molecular target: T2, 320 non-olfactory GPCRs (Homo sapiens, UniProt P41231); details: receptor P2RY2; replicate values, Fig_4g
T2 construct: expressed in transfected cells; host or cells: HTLA cells

320 non-olfactory GPCRs [3] = molecular target: 320 non-olfactory GPCRs (Homo sapiens, UniProt P47211)
320 non-olfactory GPCRs [4] = molecular target: T3, 320 non-olfactory GPCRs (Homo sapiens, UniProt Q99705); details: receptor MCHR1R; replicate values, Fig_4g
T3 construct: expressed in transfected cells; host or cells: HTLA cells
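Wherever Fold of Basal is given: compound tested at 1 µM final concentration.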
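Wherever GPCRome agonism screen response is given: fold over basal response of each receptor without drug.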

T1 sequence (P08588 whole entry): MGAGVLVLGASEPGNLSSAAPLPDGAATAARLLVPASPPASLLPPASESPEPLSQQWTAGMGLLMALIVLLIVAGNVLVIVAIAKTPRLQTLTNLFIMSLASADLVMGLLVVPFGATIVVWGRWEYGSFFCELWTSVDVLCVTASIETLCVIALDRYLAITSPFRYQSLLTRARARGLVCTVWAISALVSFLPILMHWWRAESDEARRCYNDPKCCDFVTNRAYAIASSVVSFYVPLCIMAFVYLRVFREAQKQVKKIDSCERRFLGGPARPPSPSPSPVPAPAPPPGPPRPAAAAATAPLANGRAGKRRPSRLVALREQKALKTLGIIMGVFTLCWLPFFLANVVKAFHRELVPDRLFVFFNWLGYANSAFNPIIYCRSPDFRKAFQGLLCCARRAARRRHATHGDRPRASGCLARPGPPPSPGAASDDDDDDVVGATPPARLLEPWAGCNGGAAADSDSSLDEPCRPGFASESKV
T2 sequence (P41231 whole entry): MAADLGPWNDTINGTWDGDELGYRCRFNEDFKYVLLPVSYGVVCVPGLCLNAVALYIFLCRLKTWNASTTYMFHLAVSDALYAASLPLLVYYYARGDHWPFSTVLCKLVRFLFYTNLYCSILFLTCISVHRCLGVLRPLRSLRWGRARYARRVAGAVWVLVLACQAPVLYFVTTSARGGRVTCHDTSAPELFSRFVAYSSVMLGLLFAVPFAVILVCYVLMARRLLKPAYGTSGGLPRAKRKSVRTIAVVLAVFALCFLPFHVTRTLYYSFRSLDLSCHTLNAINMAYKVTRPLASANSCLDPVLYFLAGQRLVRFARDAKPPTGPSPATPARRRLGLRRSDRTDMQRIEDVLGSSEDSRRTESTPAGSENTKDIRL
T3 sequence (Q99705 whole entry): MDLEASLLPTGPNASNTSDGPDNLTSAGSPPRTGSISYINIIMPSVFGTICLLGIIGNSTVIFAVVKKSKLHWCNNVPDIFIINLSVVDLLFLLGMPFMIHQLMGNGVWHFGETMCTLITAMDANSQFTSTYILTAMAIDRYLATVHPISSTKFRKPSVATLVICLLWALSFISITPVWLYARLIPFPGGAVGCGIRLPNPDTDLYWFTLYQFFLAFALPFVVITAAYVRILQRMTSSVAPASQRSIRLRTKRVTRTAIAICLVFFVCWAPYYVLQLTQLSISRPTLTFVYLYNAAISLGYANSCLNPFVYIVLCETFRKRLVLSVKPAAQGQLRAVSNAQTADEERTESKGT
Sequence of 320 non-olfactory GPCRs (Homo sapiens, UniProt P47211) (P47211 whole entry): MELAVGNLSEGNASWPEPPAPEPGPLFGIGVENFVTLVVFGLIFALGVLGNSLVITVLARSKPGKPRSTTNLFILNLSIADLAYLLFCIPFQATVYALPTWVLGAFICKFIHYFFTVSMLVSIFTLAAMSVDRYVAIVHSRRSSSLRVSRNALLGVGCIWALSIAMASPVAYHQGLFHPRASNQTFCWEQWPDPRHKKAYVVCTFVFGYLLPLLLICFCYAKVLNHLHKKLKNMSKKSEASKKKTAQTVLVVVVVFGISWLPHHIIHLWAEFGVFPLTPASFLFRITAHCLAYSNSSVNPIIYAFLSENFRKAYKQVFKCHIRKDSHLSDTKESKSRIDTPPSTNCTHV

CCOc1cccc2cc(C(C)NCC3(O)CCCCC3)oc12 (stereo not shown) [O4LE6]
Fold of Basal (320 non-olfactory GPCRs [1]): 0.9495 and 0.9531 and 1.111 and 0.8261 | GPCRome agonism screen response (320 non-olfactory GPCRs [2]): 1.397 and 0.7849 and 2.272 and 0.7466 | Fold of Basal (320 non-olfactory GPCRs [3]): 0.9505 and 0.7559 and 1.028 and 0.7017 | GPCRome agonism screen response (320 non-olfactory GPCRs [4]): 0.7534 and 1.295 and 1.833 and 1.448
